Counter-ions that a name gives are not always drawn.
How the values were obtained:
rNPFF1 [1] = biological target: T1, rNPFF1 (Rattus norvegicus, UniProt Q9EP86); assay: Functional assay (agonist potency, intrinsic activity) at cloned rat NPFF1 receptor; format: cell-based; conditions: for rNPFF1 IA (intrinsic activity): percent of maximum response elicited by neuropeptide FF, rat NPFF1; for EC50: recombinant rat NPFF1
T1 construct: expressed in transfected cells
Method: (§1) Intrinsic activity of a compound is measured as the percent of maximum response.

rNPFF2 [2] = biological target: T2, rNPFF2 (Rattus norvegicus, UniProt Q9EQD2); assay: Binding affinity at cloned recombinant rat NPFF2 receptor
T2 construct: expressed in transfected cells
T2 sequence (Q9EQD2 whole entry): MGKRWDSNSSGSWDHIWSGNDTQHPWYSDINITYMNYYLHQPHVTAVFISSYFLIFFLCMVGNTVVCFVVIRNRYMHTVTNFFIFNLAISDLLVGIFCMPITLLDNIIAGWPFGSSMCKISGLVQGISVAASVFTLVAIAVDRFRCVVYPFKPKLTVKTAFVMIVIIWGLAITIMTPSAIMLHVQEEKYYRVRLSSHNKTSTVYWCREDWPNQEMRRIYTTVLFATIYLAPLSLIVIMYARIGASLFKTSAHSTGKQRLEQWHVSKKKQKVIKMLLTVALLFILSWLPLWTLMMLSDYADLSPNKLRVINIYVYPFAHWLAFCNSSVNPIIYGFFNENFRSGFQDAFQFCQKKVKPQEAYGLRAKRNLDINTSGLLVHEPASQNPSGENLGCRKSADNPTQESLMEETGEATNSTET

rNPFF1 [3] = biological target: T1, rNPFF1; assay: Binding affinity at cloned recombinant rat NPFF1 receptor
rNPFF2 [4] = biological target: T2, rNPFF2; assay: Functional assay (agonist potency, intrinsic activity) at cloned rat NPFF2 receptor; format: cell-based; conditions: for rNPFF2 IA (intrinsic activity): percent of maximum response elicited by neuropeptide FF, rat NPFF2; for EC50: recombinant rat NPFF2
Method: as §1

hNPFF2 [5] = biological target: T3, hNPFF2 (Homo sapiens, UniProt Q9Y5X5); assay: Binding affinity at cloned recombinant human NPFF2 receptor
T3 construct: expressed in transfected cells
T3 sequence (Q9Y5X5 103-522): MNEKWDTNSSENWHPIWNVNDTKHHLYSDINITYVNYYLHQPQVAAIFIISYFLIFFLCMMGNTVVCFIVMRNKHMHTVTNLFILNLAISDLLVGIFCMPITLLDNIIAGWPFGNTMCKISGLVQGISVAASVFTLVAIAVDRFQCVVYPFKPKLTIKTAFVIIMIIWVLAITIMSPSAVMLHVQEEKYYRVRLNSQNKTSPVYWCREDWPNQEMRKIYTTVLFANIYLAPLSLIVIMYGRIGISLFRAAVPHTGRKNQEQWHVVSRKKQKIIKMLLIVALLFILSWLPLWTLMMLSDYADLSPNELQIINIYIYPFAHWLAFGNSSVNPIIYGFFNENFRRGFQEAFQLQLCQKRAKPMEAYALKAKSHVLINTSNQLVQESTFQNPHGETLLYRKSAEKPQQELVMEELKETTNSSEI

[6] = system: distention induced contractions of the rat bladder; assay: Distension-induced rhythmic contraction (DIRC) model, micturition reflex in anesthetized rats; format: in vivo; conditions: i.v.; for duration of inhibition of bladder activity (figure legend): dose not printed in legend
Method: The effects of compounds on the micturition reflex were assessed in the “distension-induced rhythmic contraction” (DIRC) model (also called “volume-induced rhythmic contraction” model) in rats, as described in previous publications (36, 38, 40). This model is widely considered to be predictive for the actions of drugs to treat human urge incontinence (also referred to as detrusor instability or unstable bladder). Examples of drugs that are active in this model which also are used therapeutically in humans include oxybutynin and baclofen (40); imipramine and nortriptyline (37); and nifedipine and terodiline (38).
Female Sprague Dawley rats weighing approximately 300 g were anesthetized with subcutaneous urethane (1.2 g/kg) The trachea was cannulated with PE240 tubing to provide a clear airway throughout the experiment. A midline abdominal incision was made and the left and right ureters were isolated. The ureters were ligated distally (to prevent escape of fluids from the bladder) and cannulated proximally with PE10 tubing. The incision was closed using 4-0 silk sutures, leaving the PE10 lines routed to the exterior for the elimination of urine. The bladder was canulated via the transurethral route using PE50 tubing inserted 2.5 cm beyond the urethral opening. This cannula was secured to the tail using tape and connected to a pressure transducer. To prevent leakage from the bladder, the cannula was tied tightly to the exterior urethral opening using 4-0 silk.
To initiate the micturition reflex, the bladder was first emptied by applying pressure to the lower abdomen, and then filled with normal saline in 100 μL increments (maximum=2 ml) until spontaneous bladder contractions occurred (typically 20-40 mmHg) at a rate of one contraction every 2 to 3 minutes. Once a regular rhythm was established, vehicle (saline) or test compounds were administered i.v. to examine their effects on bladder activity. The effect of a compound which inhibited the micturition reflex was expressed as its “disappearance time”, defined as the time between successive bladder contractions in the presence of the test compound minus the time between contractions before compound administration.

hNPFF1 [7] = biological target: T4, hNPFF1 (Homo sapiens, UniProt Q9GZQ6); assay: Binding affinity at cloned recombinant human NPFF1 receptor
T4 construct: expressed in transfected cells
T4 sequence (Q9GZQ6 whole entry): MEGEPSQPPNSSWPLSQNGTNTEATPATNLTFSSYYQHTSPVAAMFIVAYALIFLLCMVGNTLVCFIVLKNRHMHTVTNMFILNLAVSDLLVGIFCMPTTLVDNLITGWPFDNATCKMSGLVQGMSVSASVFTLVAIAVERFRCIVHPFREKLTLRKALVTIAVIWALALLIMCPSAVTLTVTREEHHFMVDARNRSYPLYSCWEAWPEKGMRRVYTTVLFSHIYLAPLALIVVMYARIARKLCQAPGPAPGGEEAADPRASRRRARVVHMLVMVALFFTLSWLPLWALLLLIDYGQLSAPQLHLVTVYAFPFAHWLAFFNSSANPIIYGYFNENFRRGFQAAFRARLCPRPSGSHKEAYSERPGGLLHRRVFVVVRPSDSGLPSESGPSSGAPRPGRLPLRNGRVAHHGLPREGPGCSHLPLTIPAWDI

hNPFF2 [8] = biological target: T3, hNPFF2; assay: Functional assay (agonist potency, intrinsic activity) at cloned human NPFF2 receptor; format: cell-based
Method: as §1

hNPFF1 [9] = biological target: T4, hNPFF1; assay: Functional assay (agonist potency, intrinsic activity) at cloned human NPFF1 receptor; format: cell-based
Method: as §1

T1 sequence (Q9EP86 whole entry): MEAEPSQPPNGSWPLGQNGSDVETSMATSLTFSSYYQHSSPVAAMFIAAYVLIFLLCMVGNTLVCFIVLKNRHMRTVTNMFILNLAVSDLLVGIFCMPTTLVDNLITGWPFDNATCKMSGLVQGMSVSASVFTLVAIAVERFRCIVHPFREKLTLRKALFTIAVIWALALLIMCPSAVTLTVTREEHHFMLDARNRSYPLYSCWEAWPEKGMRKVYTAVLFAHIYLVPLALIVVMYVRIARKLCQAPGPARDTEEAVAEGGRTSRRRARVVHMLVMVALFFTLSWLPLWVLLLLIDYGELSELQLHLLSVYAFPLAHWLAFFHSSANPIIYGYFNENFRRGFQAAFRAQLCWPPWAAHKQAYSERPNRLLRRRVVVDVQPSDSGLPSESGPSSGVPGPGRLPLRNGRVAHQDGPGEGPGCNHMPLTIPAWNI

Structure (SMILES) | melting point | rNPFF1 IA (intrinsic activity) (rNPFF1 [1]) | EC50 (rNPFF1 [1]) | Ki (rNPFF2 [2]) | Ki (rNPFF1 [3]) | rNPFF2 IA (intrinsic activity) (rNPFF2 [4]) | EC50 (rNPFF2 [4]) | Ki (hNPFF2 [5]) | disappearance time ([6]; 1 mg/kg) | inhibition of distention induced contractions of the rat bladder ([6]; 1 mg/kg) | duration of inhibition of bladder activity (figure legend) [6] | Ki (hNPFF1 [7]) | disappearance time ([6]; 3 mg/kg) | inhibition of distention induced contractions of the rat bladder ([6]; 3 mg/kg) | hNPFF2 IA (intrinsic activity) (hNPFF2 [8]; percent of maximum response elicited by neuropeptide FF, human NPFF2) | EC50 (hNPFF2 [8]; recombinant human NPFF2) | hNPFF1 IA (intrinsic activity) (hNPFF1 [9]; percent of maximum response elicited by neuropeptide FF, human NPFF1) | EC50 (hNPFF1 [9]; recombinant human NPFF1)
Cc1nc(NC(=N)N)nc2cc(OCc3ccccc3)ccc12 (as salt: salt) [Compound 1006, N-[7-(benzyloxy)-4-methyl-2-quinazolinyl]guanidine] | 215 to 217 °C (dec.) | – | – | – | – | – | – | – | – | – | – | – | – | – | – | – | – | –
Cc1cc2nc(NC(=N)N)nc(C)c2cc1O (as salt: salt) [Compound 1017, N-(6-hydroxy-4,7-dimethyl-2-quinazolinyl)guanidine] | 246 to 248 °C (dec.) | – | – | – | – | – | – | – | – | – | – | – | – | – | – | – | – | –
Cc1nc(NC(=N)N)nc2cc(C(C)(C)C)ccc12 [Compound 1022, N-[7-(tert-butyl)-4-methyl-2-quinazolinyl]guanidine] | 195 to 198 °C (dec.) | 19% NPFF | 3160 nM | 602 nM | 126 nM | 81% NPFF | 190 nM | – | – | – | – | – | – | – | – | – | – | –
Cc1nc(NC(=N)N)nc2cc3c(cc12)CCC3 [Compound 1038, N-(4-methyl-7,8-dihydro-6H-cyclopenta[g]quinazolin-2-yl)guanidine] | 295 to 298 °C (dec.) | Inactive | > 10000 nM | 602 nM | 95 nM | 74% NPFF | 48 nM | – | – | – | – | – | – | – | – | – | – | –
Cc1cc(NC(=N)N)nc2ccc(Cl)cc12 [Compound 4005, N-(6-chloro-4-methyl-2-quinolinyl)guanidine] | – | Inactive | > 10000 nM | 282 nM | 25 nM | 61% NPFF | 389 nM | 123 nM | 35 min | complete inhibition | 35 min | 24 nM | – | – | – | – | – | –
Cc1ccc2c(C)cc(NC(=N)N)nc2c1 [Compound 4006, N-(4,7-dimethyl-2-quinolinyl)guanidine] | – | Inactive | > 10000 nM | 185 nM | 7 nM | 32% NPFF | 269 nM | 91 nM | – | – | 12 min | 13 nM | 12 min | complete inhibition | Inactive | > 10000 nM | Inactive | > 10000 nM

Source: US20030139431A1 (priority 2001, published 2003)
